Measurements from the supplement of paper PMC10307832.

Tests used:
Assay in all cases: relative viability (nuclei count vs DMSO), 5 days (fraction); higher = more cells survive
RO-3306 + Phenformin = compound: C1=CC2=C(C=CC(=C2)C=C3C(=O)NC(=NCC4=CC=CS4)S3)N=C1 [RO-3306] + N=C(N)NC(=N)NCCc1ccccc1 [Phenformin] (partner 250 µM)
How it was run: (§1)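 Values are medians from duplicate plates. Each reflects relative viability, defined as the nuclei count of treated wells over that of vehicle wells. Lung cancer cell lines in 1536-well plates were pin-tool dosed one day after seeding with one drug alone or with a fixed anchor-drug dose plus five library-drug doses (not always all listed) in √10 steps, then fixed, stained and imaged at 4× after 5 days.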

[1] = compound: O=S(=O)(c1ccccc1)N(CC(F)(F)F)c1ccc(C(O)(C(F)(F)F)C(F)(F)F)cc1 + O=C(c1cc(Cc2n[nH]c(=O)c3ccccc23)ccc1F)N1CCN(C(=O)C2CC2)CC1 [Olaparib] (partner 8 µM)
How it was run: as §1

[2] = compound: O=S(=O)(c1ccccc1)N(CC(F)(F)F)c1ccc(C(O)(C(F)(F)F)C(F)(F)F)cc1 + C[C@]1(O)C[C@@H](c2nc(-c3ccc4ccc(-c5ccccc5)nc4c3)c3c(N)nccn32)C1 [Linsitinib] (partner 1 µM)
How it was run: as §1

[3] = compound: O=S(=O)(c1ccccc1)N(CC(F)(F)F)c1ccc(C(O)(C(F)(F)F)C(F)(F)F)cc1 + CC(=O)Nc1cccc(-n2c(=O)n(C3CC3)c(=O)c3c(Nc4ccc(I)cc4F)n(C)c(=O)c(C)c32)c1 [Trametinib] (partner 0.02 µM)
How it was run: as §1

RO-3306 + Linsitinib = compound: C1=CC2=C(C=CC(=C2)C=C3C(=O)NC(=NCC4=CC=CS4)S3)N=C1 [RO-3306] + C[C@]1(O)C[C@@H](c2nc(-c3ccc4ccc(-c5ccccc5)nc4c3)c3c(N)nccn32)C1 [Linsitinib] (partner 1 µM)
How it was run: as §1

Cell Line	relative viability (RO-3306 + Phenformin; first compound 0.01 µM)	relative viability (RO-3306 + Phenformin; first compound 0.03162 µM)	relative viability (RO-3306 + Phenformin; first compound 0.1 µM)	relative viability (RO-3306 + Phenformin; first compound 0.3162 µM)	relative viability (RO-3306 + Phenformin; first compound 1 µM)	relative viability ([1]; first compound 0.8 µM)	relative viability ([1]; first compound 2.53 µM)	relative viability ([1]; first compound 8 µM)	relative viability ([2]; first compound 0.8 µM)	relative viability ([2]; first compound 2.53 µM)	relative viability ([2]; first compound 8 µM)	relative viability ([3]; first compound 0.8 µM)	relative viability ([3]; first compound 2.53 µM)	relative viability ([3]; first compound 8 µM)	relative viability (RO-3306 + Linsitinib; first compound 0.01 µM)	relative viability (RO-3306 + Linsitinib; first compound 0.03162 µM)	relative viability (RO-3306 + Linsitinib; first compound 0.1 µM)	relative viability (RO-3306 + Linsitinib; first compound 0.3162 µM)	relative viability (RO-3306 + Linsitinib; first compound 1 µM)
NCI-H1734	0.355	0.276	0.344	0.409	0.368	0.703	0.559	0.469	1.04	0.883	0.932	0.711	0.65	0.664	1.05	0.578	0.823	0.891	0.836
NCI-H1755	0.65	0.62	0.63	0.622	0.544	0.918	0.865	0.849	1.01	0.98	0.995	0.769	0.661	0.815	1.05	1	1.02	0.995	1.09
NCI-H1792	0.196	–	0.156	0.289	0.259	0.402	0.274	0.189	0.396	0.392	0.22	0.407	0.303	0.287	0.728	–	0.569	0.604	0.31
NCI-H1793	0.346	0.347	0.397	0.366	0.315	0.791	0.574	0.692	0.836	0.641	0.66	0.33	0.295	0.29	1.1	0.624	0.931	1.05	1.01
NCI-H1915	0.405	0.31	0.358	0.348	0.377	0.266	0.263	0.269	1.14	1.03	1.06	0.303	0.261	0.255	1.16	1.11	1.08	1.08	1.07
NCI-H1944	0.206	0.182	0.2	0.168	0.194	0.407	0.39	0.396	1.25	1.08	1.13	0.448	0.389	0.432	1.22	1.07	1.08	1.36	1.17
NCI-H1975	0.412	0.392	0.378	0.405	0.384	1.02	0.762	0.875	1.09	1.16	0.88	0.341	0.338	0.316	1.11	0.981	1.01	0.891	0.913
NCI-H1993	0.483	0.552	0.503	0.517	0.499	1.1	0.843	0.954	0.7	0.721	0.806	0.554	0.457	0.478	–	0.711	0.678	0.732	0.695
NCI-H2009	0.52	0.455	0.49	0.483	0.494	0.663	0.685	0.648	1.15	1.01	1.03	0.259	0.246	0.289	1.22	1.12	1.18	1.23	1.23
NCI-H2023	0.459	0.38	0.398	0.403	0.356	0.601	0.48	0.441	0.659	0.564	0.464	0.593	0.428	0.358	0.607	0.566	0.637	0.798	0.585
NCI-H2085	0.688	0.604	0.655	0.683	0.654	0.745	0.686	0.742	1.07	0.888	0.844	0.471	0.496	0.472	0.882	0.755	0.884	0.866	0.84
NCI-H2087	0.526	0.332	0.423	0.489	0.372	0.643	0.609	0.637	0.921	0.95	0.961	0.26	0.173	0.2	0.977	0.982	1.06	1.05	0.928
NCI-H2126	0.504	0.544	0.513	0.508	0.513	0.999	0.878	0.803	0.783	0.718	0.739	0.645	0.593	0.628	0.678	0.709	0.775	0.678	0.635
NCI-H2228	0.286	0.211	0.276	0.32	0.241	0.678	0.578	0.589	0.615	0.727	0.391	0.693	0.371	0.429	0.963	0.529	0.678	0.655	0.617
NCI-H2347	0.347	0.374	0.384	0.485	0.384	0.566	0.522	0.572	1.1	1.01	0.825	0.304	0.277	0.292	1.01	0.877	0.999	1.01	0.795
NCI-H2405	0.403	0.539	0.356	0.368	0.554	0.846	0.819	0.777	1.05	0.913	0.983	0.673	0.615	0.707	0.994	0.873	0.896	0.921	0.944
